From the METLIN SMRT retention time set (Domingo-Almenara et al. 2019) come the findings set out here.

The nature of the data set: gradient 5% acetonitrile 3 min, to 50% in 2 min, to 85% in 15 min, held 3 min, 100 µL/min. To be noted: column: Zorbax Extend-C18 2.1 x 50 mm; eluents: water / acetonitrile, 0.1% formic acid. The method, boiled down: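 Values are retention times taken from adduct peaks that software picked and an analyst inspected. The pure standards were run as mixtures of ~100 molecules on HPLC linked to a quadrupole time-of-flight mass spectrometer, in positive and negative ionization mode. A Zorbax Extend-C18 column (2.1 × 50 mm, 1.8 μm) was used at 100 μL/min with water and acetonitrile, each including 0.1% formic acid.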
In the case of `CCn1ccc2c(cc(C(=O)Nc3cc(Cl)ccc3OC)n2C)c1=O`, the RP-LC retention time was 1150 s. With `CCCn1nc(C)cc1CN(C)C(=O)Cn1nc2n(c1=O)CCC(N)CC2` (centres undefined), the RP-LC retention time came to 561 s. In turn, `COc1ccc(S(=O)(=O)N2CCC(c3noc(-c4cccc(C)c4)n3)CC2)cc1` returned an RP-LC retention time of 1170 s. `O=C(Cn1c(=O)c(CCC(=O)NC2CCCC2)nc2ccccc21)NCc1ccccc1Cl` registered an RP-LC retention time of 842 s. Consider `CCC(C(=O)NCc1ccco1)n1c2ccccc2c2cnn(C)c(=O)c21` (centres undefined), for which the RP-LC retention time came to 777 s. On to `CC(C)c1ccc(CNC(=O)C2CCc3nc(N4CCCC4)ncc3C2)cc1` (centres undefined), for which the RP-LC retention time worked out at 648 s. For `Cc1ccc(NS(=O)(=O)c2cc3n(c2)CCN(C(C)C)C3=O)c(F)c1` the value was 765 s; for `CCOCCCNC(=O)C1CCN(c2cc(Oc3ccc(CC)cc3)ncn2)CC1`, 646 s; for `CN1c2cc(C(=O)N3CCN(c4ccccc4F)CC3)ccc2C(=O)N2CCCCC21` (centres undefined), 877 s.

For `Cc1ccc(CNC(=O)CCc2nc(N3CCCCC3)c3c(-c4ccc(F)cc4)noc3n2)o1`, the RP-LC retention time was 1030 s.

`CCCn1cnc2cc(CNC(=O)c3ccc(C(F)(F)F)cc3)ccc21` gave an RP-LC retention time of 674 s. The compound `Cc1cc(-n2cc(C(=O)N3CCC(NC(=O)Cc4cccs4)CC3)nn2)ccc1F` had an RP-LC retention time of 746 s. Under `CC(C)CCNC(=O)C1(C)Cn2nc(C(=O)NCc3ccc(N(C)C)cc3)cc2C(=O)N1C` (centres undefined) stands 619 s; under `Cc1c(Cl)cccc1NS(=O)(=O)c1cc2c(s1)CCN(C(=O)C1CCC1)C2`, 916 s.

`CC1CCCN(C(=O)C2CC(=O)N(c3ccc4c(c3)CCN4C(=O)C3CC3)C2)C1` (centres undefined) showed an RP-LC retention time of 758 s.

For the compound `CC1CCN(S(=O)(=O)c2ccc3nn(Cc4ccccc4F)c(=O)n3c2)CC1`, the RP-LC retention time was 653 s. Turning to `CCc1cccc(-n2nnc(C(=O)NCCOC)c2-c2ccncc2)c1`, the RP-LC retention time turned out to be 715 s.

In the case of `COC(=O)c1ccsc1NC(=O)Cc1ccc2c(c1)OCO2`, the RP-LC retention time is 888 s. `O=C(N[C@H]1C[C@@H]2C[C@H]1CN2C(=O)c1ccc(OC(F)(F)F)cc1)c1cccs1`: the RP-LC retention time was found to be 842 s. As to `Cc1nc(-c2cccc(NC(=O)c3cncc(Br)c3)c2)no1`, the RP-LC retention time was 834 s.

On to `O=C(Cc1c(F)cccc1Cl)NC1CCN(c2cc(-c3ccccc3)[nH]n2)C1` (centres undefined), for which the RP-LC retention time is 638 s. Compound `COc1cc(OC)c(NC(=O)C2CCN(C(=O)C3Sc4ccccc4NC3=O)CC2)cc1Cl` (centres undefined) returned an RP-LC retention time of 810 s. On to `Cc1ccn2c(Nc3ccccc3C)c(-c3ccccc3O)nc2c1`, for which the RP-LC retention time worked out at 701 s. The compound `O=C(Cn1cc(-c2ccccc2)c2ncnc(N3CCOCC3)c21)NCc1ccc(Cl)cc1` came in with an RP-LC retention time of 778 s. Consider `O=C(NCCN1CCCC1)c1ccc(-c2noc(-c3ccccc3)n2)s1`, for which the RP-LC retention time came to 673 s.

The compound `Cn1c(=O)n(C)c2cc(CNC(C)(C)CC(C)(C)C)ccc21` yielded an RP-LC retention time of 624 s. `CCCOC(=O)c1cnc2nc(C)ccc2c1NCc1ccc(OC)c(OC)c1`: the RP-LC retention time is 701 s. As for `COc1ccc(NC(=O)N2CCC3(CC2)NC(=O)c2cc(Cl)ccc2N3C)cc1OC`, the RP-LC retention time turned out to be 722 s. For `O=C1CCCc2cc(S(=O)(=O)N3CCC(C(=O)NCCc4ccccc4)CC3)ccc2N1` the value was 735 s.

`CCN1C(=O)C(CC(=O)NCCCN(C)C)Sc2ncccc21` (centres undefined) showed an RP-LC retention time of 559 s. Consider `Cc1oc(-c2ccccc2)nc1Cn1ccn2nc(-c3ccc4c(c3)OCO4)cc2c1=O`, for which the RP-LC retention time turned out to be 1060 s. On to `Cc1ccc(C(C)C)c(OCC(=O)N(Cc2ccc(C)o2)C2CCS(=O)(=O)C2)c1` (centres undefined), for which the RP-LC retention time turned out to be 1110 s. `CC(C)Cc1nc(N2CCN(C(=O)c3ccc([N+](=O)[O-])cc3)CC2)c(C#N)c2c1COC(C)(C)C2` returned an RP-LC retention time of 1220 s. `COc1cc(-c2nc3ncccn3c2Nc2ccc3c(c2)OCO3)ccc1O` yielded an RP-LC retention time of 621 s.

Compound `CCc1ccccc1N1C(=O)CN(S(=O)(=O)c2ccccc2)CC1(C)C(=O)NC1CCCC1` (centres undefined) showed an RP-LC retention time of 960 s. For `CCc1onc(C)c1C1CCCN1C(=O)c1ccc(C)cc1` (centres undefined) the value was 775 s. Regarding `Cc1cc(C)cc(NC(=O)Cc2nc(-c3ccccn3)n[nH]2)c1`, the RP-LC retention time turned out to be 669 s. In turn, `COc1ccc2[nH]cc(CCNC(=O)CCc3c(C)nc4c(c3C)c(=O)n(C)c(=O)n4C)c2c1` registered an RP-LC retention time of 788 s. With `CN1c2ccccc2C(=O)NC12CCN(C(=O)NCc1ccccc1)CC2`, the RP-LC retention time came out at 705 s.

`COc1cccc(-c2cc3c(=O)n(Cc4nc(-c5ccc(Br)cc5)no4)ccn3n2)c1` displayed an RP-LC retention time of 1140 s. With `Cc1cccc(NC(=O)COc2cccc3c(=O)n(C)ccc23)c1`, the RP-LC retention time amounted to 798 s. In turn, `Cc1ccc(CS(=O)(=O)N2CCC(n3c(-c4ccco4)nc4cccnc43)C2)cc1C` (centres undefined) came in with an RP-LC retention time of 995 s. For `O=C(Nc1ccccc1C(F)(F)F)c1ccc(N2CCCC2)nn1` the value was 868 s. For `Cc1ccc(S(=O)(=O)N2CCC(c3nc(-c4ccccn4)no3)CC2)cc1C` the value was 970 s; for `CCOC(=O)C1CCC(CNC(=O)N2CCN(Cc3nc4ccc(Cl)cc4o3)CC2)CC1` (centres undefined), 697 s. For `c1ccc(OCc2nc(-c3cccc(-c4ccn[nH]4)c3)no2)cc1`, the RP-LC retention time was 906 s. Consider `COC(=O)c1ccc(-c2csc(NC(=O)c3c(F)cccc3Cl)n2)cc1`, for which the RP-LC retention time stood at 945 s. The compound `Cc1cccc(OCc2nc(C)c(C(=O)Nc3nc(-c4ccccc4)cs3)s2)c1` displayed an RP-LC retention time of 1230 s. For `Cc1cc(C2CCCN2C(=O)c2cc(-c3ccccc3)no2)no1` (centres undefined) the value was 868 s.

As to `O=C(Nc1ccccc1)C1CC(=O)N(c2ccc3c(c2)CCN3C(=O)C2CCC2)C1` (centres undefined), the RP-LC retention time is 792 s. Turning to `O=C(Nc1ccc2c(c1)CN(C(=O)COc1ccccc1)CCO2)C1CC1`, the RP-LC retention time is 752 s. The compound `Cc1ccc(NC(=O)N2CC(N(C)Cc3cccnc3)C2)cc1C` showed an RP-LC retention time of 605 s. `CCCCCNC(=O)CN1c2ccc(F)cc2-c2ccccc2S1(=O)=O`: the RP-LC retention time amounted to 986 s. Consider `Cc1nccn1Cc1nc(-c2ccc(F)c(Cl)c2)no1`, for which the RP-LC retention time is 654 s. With `O=C(c1nc2ccccc2s1)N(Cc1ccsc1)Cc1ccco1`, the RP-LC retention time was found to be 1110 s. On to `CC1(C)COc2ccc(NC(=O)CN3C(=O)c4ccccc4C3=O)cc2NC1=O`, for which the RP-LC retention time amounted to 738 s. `CCN(CC)CCNC(=O)CC1Sc2ccccc2NC1=O` (centres undefined) gave an RP-LC retention time of 591 s. Under `CNC(=O)N1CCCC(c2cccc(C(=O)NCc3cccc(Br)c3)c2)C1` (centres undefined) stands 819 s; under `CCn1c(C(=O)NCCCN2CCOCC2)cc2c(=O)oc3ccccc3c21`, 612 s; under `O=C(CN1CCCCC1c1nc(-c2cccc(F)c2)no1)Nc1ccc(F)cc1` (centres undefined), 1130 s. Under `Cc1nc2cc(N3CCCC(C(=O)NCc4cccs4)C3)cnc2nc1C` (centres undefined) stands 687 s.

`COc1ccc(OCc2nn3c(-c4ccc(OC)cc4)nnc3s2)cc1` gave an RP-LC retention time of 947 s.

`CCCNC(=O)N1C[C@@H]2CCCN3CCC[C@@H]([C@H]23)[C@H]1CCCC(=O)NCC1CC1` gave an RP-LC retention time of 576 s.

`Cc1cc(C)n(Cc2ccc(C(=O)N3C[C@H]4C[C@H](C3)[C@H]3CCCC(=O)N3C4)o2)n1`: the RP-LC retention time was determined as 630 s.

Take `O=C(NCC1(N2CCOCC2)CCOC1)Nc1ccccc1C(F)(F)F` (centres undefined): the RP-LC retention time came to 596 s. Under `Cn1nc(-c2nc(C3CC3)no2)c2c1CCN(S(=O)(=O)c1cccc(F)c1)C2` stands 920 s. `CC(C)C(=O)c1cn(CC(=O)COc2ccc(Oc3ccccc3)cc2)c2ccc(C(=O)O)cc12` came in with an RP-LC retention time of 1140 s. In the case of `OCCN1CCN(c2ncnc3c2cnn3-c2ccccc2Cl)CC1`, the RP-LC retention time came out at 592 s. Under `CC(C)c1nc2c(N)cccn2n1` stands 613 s; under `Cc1ccccc1NC(=O)N1CCCC1c1nc(-c2ccc(F)cc2F)no1` (centres undefined), 932 s. `CCCNC(=O)NCc1nc(-c2ccc(Cl)cc2)no1` came in with an RP-LC retention time of 806 s. `COCCNC(=O)N1CCCN(C2=NS(=O)(=O)C(c3ccccc3)=C2C)CC1` displayed an RP-LC retention time of 676 s. With `CCn1nc(C)cc1C(=O)Nc1nc2c(s1)CC(C)CC2` (centres undefined), the RP-LC retention time worked out at 935 s. Consider `CCc1cc(N2CCN(C(=O)c3ccc4c(c3)OCO4)CC2)nc2nncn12`, for which the RP-LC retention time is 575 s.

`Cc1cccc(-c2nc(Cc3noc(COc4ccccc4)n3)c(C)o2)c1` registered an RP-LC retention time of 1170 s. With `Cc1ccc(S(=O)(=O)N2CCC(CCNC(=O)NCC(C)C)CC2)cc1`, the RP-LC retention time is 877 s.

As to `O=C(Nc1ccc2c(N3CCCCC3)ncnc2c1)c1ccc(Br)o1`, the RP-LC retention time is 685 s.

In the case of `CCn1c(=O)c(N2CCN(C(=O)Nc3cccc(Br)c3)CC2)nc2ccccc21`, the RP-LC retention time came to 1030 s. Consider `C=C(C)CNc1nc(-c2ccccc2)c(-c2ccccc2)s1`, for which the RP-LC retention time turned out to be 1040 s.
